Marks after values point to notes of the source that are not given here.
Legend:
[1] = test system: sucrose challenged low dosed STZ-induced diabetic rats; assay: Sucrose challenged low dosed streptozotocin-induced diabetic rats (STZ-S); assay type: in vivo, rat
Protocol: Fasting blood glucose level of each animal was measured after 48 hours post STZ injection by Glucostrips (Roche) using Glucometer (ACCU-CHEK II; Roche Diagnostics, USA) and animals showing blood glucose level above 280 mg/dl were considered as diabetic. The diabetic rats with fasting blood glucose values varying between […] were included in this study. Animals were divided into groups consisting of five animals in each. Group one was considered as a control group, where as the other groups were termed as experimental groups. […] The test samples and standard drug (Metformin) was always prepared in the vehicle 1% gum acacia. […] Food (not water) was removed from the cages during the experimental period. […] The percent decline in AUC of the experiment group compared to sham treated control group termed as % antihyperglycaemic activity. Statistical analysis between the groups was done by employing Students t test.

db/db mice = assay: db/db mice: blood glucose, OGTT, serum lipid and insulin; assay type: in vivo; conditions: for decrease in plasma insulin levels / enhancement of HDL-cholesterol level / lowering of serum triglycerides level (TG) / lowering of total cholesterol (T-Chol) level: 15 days
Protocol: Male C57BL/KsJ-db/db mice (8 to 12 weeks old, 35-45 g body weight) were procured from National Animal Laboratory Centre (NALC) of Central Drug Research Institute (CDRI), Lucknow, India. Animals were housed in polypropylene cages, in controlled environment (temperature 25±2° C.; humidity 50-60%; light 300 lux at floor level with regular 12 h light-12 h dark cycle; noise level 50 decibel; ventilation 10-15 air changes per hour). They were provided with a standard laboratory diet (Dayal Industry, Barabanki, Lucknow) unless stated otherwise and had free access to water. The animals were allocated into groups of 5 animals in each. Prior to start of the test sample feeding, a vehicle training period was followed from day −3 to day 0 during which all the animals were given vehicle (1% gum acacia) at a dose volume of 10 ml/kg body weight. At day 0 the animals having blood glucose level between 180 to 300 mg/di were selected and divided into three groups containing 5 animals in each. One group was considered as control group while the other group one was treatment group. The treatment groups were given suspensions of 14b at 1.0 and 3.0 mg/kg body weight, dose, respectively. The control group was given an equal amount of vehicle. All the animals had free access to fresh water and normal diet. Random blood glucose of each mouse was checked daily at 11.00. […] Blood has been withdrawn from the retro-orbital plexus of mice eye for the estimation of lipid profile and insulin.
In type 2 diabetes, elevated blood glucose level due to defect in peripheral glucose disposal results in hyperglycaemia. To observe the improvement on hyperglycaemia 14b was orally gavaged for 15 consecutive days and after dosing blood glucose of control and treated group were measured.

[2] = test system: high fructose high fat fed Syrian golden hamsters; assay: Antidyslipidemic activity in high fructose high fat fed Syrian golden hamsters; assay type: in vivo
Protocol: Male Syrian golden hamsters weighing 100-120 g were divided into groups each containing six animals. Dyslipidemia was produced by feeding the animals with high fructose high fat diet (60% fructose, 13% fat) for 30 to 40 days. Dyslipidemic hamsters were divided into groups based on their Serum lipid profile. The dyslipidemic animals had free access to HFD and water throughout the experimental period. The fine suspension of 14b was fed orally at a dose of 30 mg/kg for 7 days to the animals. Control animals were given drug vehicle only, served as sham treated control. Body weight and diet intake of each animal group were recorded daily to check the effect of the test samples on food intake and body weight of the animals. At the end of the experiment period i.e. on day 8th, the blood of each animal was withdrawn from retro-orbital plexus. After keeping the tubes for 15 min. in cold, Serum was separated. Biochemical analysis of Serum was performed on the same day for triglycerides (TG), total cholesterol (TC) and HDL-cholesterol and LDL-cholesterol contents using Cobas Integra 400 plus analyzer kits. All statistical analysis will be performed with Graph Pad Prism Software. One way ANOVA, all pair wise multiple comparison procedure (Tukey test). Data will be reported as mean±SEM.

## C/C(=N\OCCN1CCCCC1)[C@H]1CC[C@H]2[C@@H]3CC=C4C[C@@H](O)CC[C@]4(C)[C@H]3CC[C@]12C [Compound 14b, 3β-Hydroxy-pregna-5-en-20-one-O-(2-piperidin-1-yl-ethyl)-oxime]
[1]; 100 mg/kg
  Blood glucose level, 0 min post sucrose load: 222.0 ± 7.9 mg/dL
  Blood glucose level, 30 min post sucrose load: 452.6 ± 18.2 mg/dL
  Blood glucose level, 60 min post sucrose load: 524.8 ± 11.2 mg/dL
  Blood glucose level, 90 min post sucrose load: 468.2 ± 12.6 mg/dL
  Blood glucose level, 120 min post sucrose load: 412.6 ± 5.8 mg/dL
  Blood glucose level, 180 min post sucrose load: 345.2 ± 9.2 mg/dL
  Blood glucose level, 240 min post sucrose load: 311.6 ± 3.7 mg/dL
  Blood glucose level, 300 min post sucrose load: 264.8 ± 8.7 mg/dL
  Blood glucose level, 1440 min post sucrose load: 414.8 ± 8.3 mg/dL
[1]; Table 2
  % Antihyperglycemic activity STZ-S 0-5 hr: 28.9%
  % Antihyperglycemic activity STZ-S 0-24 hr: 25.2%
db/db mice; 1.0 mg/kg oral
  decrease in plasma insulin levels: 4.03%
  enhancement of HDL-cholesterol level: 6.18%
  lowering of serum triglycerides level (TG): 13.8%
  lowering of total cholesterol (T-Chol) level: 13.3%
db/db mice; 3.0 mg/kg oral
  decrease in plasma insulin levels: 8.06%
  enhancement of HDL-cholesterol level: 13.6%
  lowering of serum triglycerides level (TG): 18.9%
  lowering of total cholesterol (T-Chol) level: 16.7%
db/db mice; 1.0 and 3.0 mg/kg oral, 15 consecutive days, FIG. 8
  blood glucose levels vs vehicle treated group, in words: decline in their blood glucose levels
db/db mice; day 10th, 1.0 mg/kg
  % Antihyperglycaemic activity (OGTT improvement): 10.3%
  Blood glucose profile, 0 min post glucose load: 211.6 ± 11.8 mg/dL
  Blood glucose profile, 30 min post glucose load: 559.8 ± 24.8 mg/dL
  Blood glucose profile, 60 min post glucose load: 568.0 ± 12.9 mg/dL
  Blood glucose profile, 90 min post glucose load: 502.8 ± 23.6 mg/dL
  Blood glucose profile, 120 min post glucose load: 437.8 ± 14.1 mg/dL
  decline in fasting blood glucose level: ~21.2%
db/db mice; day 10th, 3.0 mg/kg
  % Antihyperglycaemic activity (OGTT improvement): 15.1%
  Blood glucose profile, 0 min post glucose load: 190.2 ± 12.9 mg/dL
  Blood glucose profile, 30 min post glucose load: 542.2 ± 24.1 mg/dL
  Blood glucose profile, 60 min post glucose load: 523.2 ± 22.7 mg/dL
  Blood glucose profile, 90 min post glucose load: 482.0 ± 20.5 mg/dL
  Blood glucose profile, 120 min post glucose load: 414.0 ± 9.4 mg/dL
  decline in fasting blood glucose level: ~29.1%
db/db mice; day 15th, 1.0 mg/kg
  % Antihyperglycaemic activity (OGTT improvement): 16.9%
  Blood glucose profile, 0 min post glucose load: 183.6 ± 7.86 mg/dL
  Blood glucose profile, 30 min post glucose load: 499.2 ± 36.1 mg/dL
  Blood glucose profile, 60 min post glucose load: 560.6 ± 14.6 mg/dL
  Blood glucose profile, 90 min post glucose load: 468.8 ± 19.5 mg/dL
  Blood glucose profile, 120 min post glucose load: 383.8 ± 8.46 mg/dL
  decline in fasting blood glucose level: around 25.5%
db/db mice; day 15th, 3.0 mg/kg
  % Antihyperglycaemic activity (OGTT improvement): 24.5%
  Blood glucose profile, 0 min post glucose load: 160.2 ± 6.88 mg/dL
  Blood glucose profile, 30 min post glucose load: 458.8 ± 16.6 mg/dL
  Blood glucose profile, 60 min post glucose load: 513.2 ± 13.1 mg/dL
  Blood glucose profile, 90 min post glucose load: 420.0 ± 13.2 mg/dL
  Blood glucose profile, 120 min post glucose load: 348.0 ± 13.2 mg/dL
  decline in fasting blood glucose level: ~35.1%
[2]; 30 mg/kg oral
  enhancement of lipoprotein lipase: 19.4%
  enhancement of serum HDL-cholesterol: 17.8%
  lowering of LDL-cholesterol (LDL-C) level: 32.3%
  lowering of non-esterified fatty acid (NEFA): 12.3%
  lowering of serum glycerol level: 25.7%
  lowering of serum triglycerides level (TG): 32.8%
  lowering of total cholesterol (T-Chol) level: 23.1%
[2]; 30 mg/kg p.o., 7 days
  Chol, change vs HFD control (in parentheses): (−23.1)* %
  Glycerol, change vs HFD control (in parentheses): (−25.7) %
  HDL-C, change vs HFD control (in parentheses): (+17.8) %
  LDL-C, change vs HFD control (in parentheses): (−32.3)* %
  Lipoprotein lipase, change vs HFD control (in parentheses): (+19.4) %
  NEFA, change vs HFD control (in parentheses): (−12.3) %
  TG, change vs HFD control (in parentheses): (−32.8)* %
[2]; 30 mg/kg p.o., 7 days, serum
  Chol: 257.2 ± 22.4 mg/dL
  Glycerol: 1004.9 ± 40.2 µmol/L
  HDL-C: 168.2 ± 8.90 mg/dL
  LDL-C: 179.6 ± 13.2 mg/dL
  Lipoprotein lipase: 36.3 ± 3.90 U/L
  NEFA: 5.70 ± 0.42 mmol/L
  TG: 501.8 ± 45.7 mg/dL
[2]; vs control group, FIG. 10
  effect on body weight, in words: effectively inhibited the rise in body weight

Reference: patent US20160009752A1, “[…]-OXIMINO-AMINOALKYLETHERS AND PROCESS FOR PREPARATION THEREOF, USEFUL AS ANTIDIABETIC AND […] AGENTS” (COUNCIL OF SCIENTIFIC & INDUSTRIAL RESEARCH, priority 2013, published 2016)
